Measured values reported in publication PMC4456386, “Ligand Recognition of the Major Birch Pollen Allergen Bet v 1 is Isoform Dependent” (PLoS ONE, 2015).
Several values for one entry are separate records, joined by “and”; a condition that tells them apart may be missing. Identical values can stand only once. Entries after “also recorded” stand apart in the source; their conditions may differ.

Columns and labels:
Bet v 1a [1] = biological target: T1, Bet v 1a (Betula pendula, UniProt P15494); experiment: UV/VIS equilibrium titration of flavonoids with Bet v 1a; assay type: binding, Betula verrucosa; conditions: for Kd: Dissociation constant Kd, UV/VIS titration, 298 K, pH 7.0, 10% DMSO, error = standard error of fit; for Absorption maxima, Bet v 1a:Flavonoid: complex with Bet v 1a
T1 construct: made in house
T1 sequence (P15494 whole entry): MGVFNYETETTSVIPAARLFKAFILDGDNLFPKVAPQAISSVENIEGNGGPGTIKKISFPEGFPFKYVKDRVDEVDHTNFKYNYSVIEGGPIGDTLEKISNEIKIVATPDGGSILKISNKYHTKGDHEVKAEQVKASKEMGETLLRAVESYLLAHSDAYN
Protocol: (§1) All flavonoids and Bet v 1 isoforms were dissolved in 50 mM sodium phosphate, 50 mM NaCl, 10% (v/v) DMSO, pH 7.0, to a final concentration of 10 to 20 μM in 500 μl. Absorption spectra from 200–800 nm were recorded at 25°C in a 1 cm quartz cuvette (Hellma GmbH) using a 8453 UV-visible spectrophotometer (Agilent).
(§2) To further characterize flavonoid binding to Bet v 1, titration experiments were performed by adding small amounts of concentrated Bet v 1 isoform a, d or m to different flavonoids. Changes of flavonoid absorption occurring at specific wavelengths were plotted against the protein concentration. Prior to curve-fitting, absorbance data were corrected for dilution. If possible, the equilibrium dissociation constant (K d) was determined by non-linear regression analysis of the data with GraFit-5 (Version 5.0, Erithacus Software, UK) using the following Eq (1): ΔA=ΔAmax/2Q[(B+Q+Kd)-((B+Q+Kd)^2-[…])] (1) ΔA max, maximum change in absorbance at specific wavelengths; B, Bet v 1a concentration; Q, total flavonoid concentration.

Bet v 1m [2] = biological target: T2, Bet v 1m (Betula pendula, UniProt P43186); experiment: UV/VIS equilibrium titration of flavonoids with Bet v 1m; assay type: binding, Betula verrucosa; conditions: for Absorption maxima, Bet v 1m:Flavonoid: complex with Bet v 1m
T2 construct: made in house
T2 sequence (P43186 whole entry): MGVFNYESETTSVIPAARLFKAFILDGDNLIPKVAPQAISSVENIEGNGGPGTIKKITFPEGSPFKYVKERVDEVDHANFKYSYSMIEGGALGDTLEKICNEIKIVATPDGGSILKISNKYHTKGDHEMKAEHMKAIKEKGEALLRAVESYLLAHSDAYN
Protocol: as §1, §2

Bet v 1d [3] = biological target: T3, Bet v 1d (Betula pendula, UniProt P43177); experiment: UV/VIS equilibrium titration of flavonoids with Bet v 1d; assay type: binding, Betula verrucosa; conditions: for Absorption maxima, Bet v 1d:Flavonoid: complex with Bet v 1d
T3 construct: made in house
T3 sequence (P43177 whole entry): as the sequence (P15494 whole entry) above, with T8I, F31V, S58N, I92V, S113C, I114V, D126N counted along it
Protocol: as §1, §2

Bet v 1a [4] = biological target: T1, Bet v 1a; experiment: 1H-15N HSQC NMR titration (chemical shift perturbation) of 15N-Bet v 1a; assay type: binding, Betula verrucosa; conditions: for Kd per residue / Kd / Dissociation constant Kd (averaged Kd app): Bet v 1a; for binding to Bet v 1a (in words): 1H-15N HSQC titration
Protocol: (§3) All NMR experiments were performed at 298 K in 50 mM sodium phosphate buffer, 50 mM NaCl, pH 7.0, 10% deuterium oxide (^2H2O) with ^15N-uniformly labelled Bet v 1 isoforms using Bruker Avance 700 MHz and Avance 800 MHz spectrometers with cryogenically cooled triple-resonance probes equipped with pulsed field-gradient capabilities. NMR data were processed using NMRPipe and visualized with NMRViewJ [89]. Three-dimensional ^15N-edited NOESY (nuclear Overhauser enhancement spectroscopy, mixing times 120 ms) experiments to assign chemical shifts were obtained with 500 μM ^15N-labeled samples of Bet v 1 isoform d or m and yielded 91% of assigned residues for Bet v 1d and 89% for Bet v 1m. The sequence-specific assignments of the amide resonances of Bet v 1a are reported elsewhere.
(§4) Interaction of Q3OS with the Bet v 1 isoforms was measured by incubating 700 μM Q3OS with 50 μM of each ^15N-labeled Bet v 1 isoform in 50 mM sodium phosphate, 50 mM NaCl buffer, pH 7.0.
(§5) For titration experiments all other flavonoids were dissolved in deuterated DMSO, while glucose and galactose were dissolved in 50 mM sodium phosphate buffer, 50 mM NaCl, pH 7.0, 10% deuterium oxide and titrated stepwise to a final excess of up to 17-fold to protein samples (ca. 100 μM). […] CSPs for ligand binding were calculated based on Eq (2): […] (2) ΔδHN and ΔδN, chemical shift differences of amide proton and nitrogen resonances, respectively, in ppm.
(§6) K d values for flavonoid binding were determined with NMRViewJ [89]. All analysable amino acid residues that were unaffected by DMSO addition and showing CSPs > 0.08 ppm were fitted to a quadratic binding curve with default settings, and an average K d app was calculated (Table 1 and S1–S3 Tables). The CSPs of all residues showing CSPs > 0.04 ppm were mapped either on models of Bet v 1d and Bet v 1m or on the Bet v 1a structure (pdb code 1BV1, [29]).

Bet v 1m [5] = biological target: T2, Bet v 1m; experiment: 1H-15N HSQC NMR titration (chemical shift perturbation) of 15N-Bet v 1m; assay type: binding, Betula verrucosa
Protocol: as §3, §4, §5, §6

[6] = UV/VIS absorption spectra of unbound flavonoids; assay type: physicochemical; conditions: pH 7.0
Protocol: as §1

Bet v 1d [7] = biological target: T3, Bet v 1d; experiment: 1H-15N HSQC NMR titration (chemical shift perturbation) of 15N-Bet v 1d; assay type: binding, Betula verrucosa; conditions: for binding to Bet v 1d (in words): 1H-15N HSQC titration, up to 15-fold excess
Protocol: as §3, §4, §5, §6

Bet v 1m [8] = biological target: T2, Bet v 1m; experiment: 1H-15N HSQC NMR titration (chemical shift perturbation) of 15N-Bet v 1m; assay type: binding, Betula verrucosa; conditions: 1H-15N HSQC titration, up to 15-fold excess
[9] = system: serum IgE binding to surface-coated Bet v 1a, Bet v 1d and Bet v 1m; experiment: Indirect ELISA for IgE binding to Bet v 1 isoforms; set-up: species or system human; conditions: 5-fold molar excess of ligand; isoforms a, d, m
Text: Fifteen sera of birch pollen-allergic subjects were collected, tested, and pooled according to the guideline of the European Medicines Agency (EMEA/CHMP/BWP/304831/2007). The serum pool is routinely used for batch-release testing of birch pollen-derived allergenic products at the Paul-Ehrlich-Institut. The same serum pool was used for both, ELISA and mediator release assays.
For IgE-ELISA experiments, Maxisorp plates (Nunc via Fisher Scientific) were coated overnight at room temperature with 50 ng/100 μl recombinant Bet v 1 isoforms a, d, or m with a 5-fold molar excess of quercetin-3-O-sophorose, rutin, quercetin, quercetin-3-O-glucoside, quercetin-3-O-galactoside, or sophorose, respectively, in phosphate-buffered saline (PBS). After blocking with PBS containing 2% bovine serum albumin (BSA) these plates and an uncoated control were incubated with a dilution series of a serum pool of birch-pollen allergic subjects for 1 h at room temperature with PBS containing 0.05% Tween 20 and 0.1% BSA. Allergen-specific human IgE was detected with a horseradish peroxidase-conjugated mouse anti-human IgE antibody (Clone B3102E8, Southern biotech via Biozol, Eching, Germany) diluted 1:1000. 3,3′,5,5′-tetramethylbenzidine (Roth, Karlsruhe) was used as substrate for horseradish peroxidase, and the absorbance at 450 nm was measured after stopping the reaction with 25% H2SO4.

[10] = one value per residue with Δδnorm > 0.08 ppm (residue named left of the cell), Int. Ex. = intermediate exchange
[11] = Dissociation constant Kd (averaged Kd app), NMR, average of all analysable residues with CSPs > 0.08 ppm, ± standard deviation
[12] = Kd per residue, one value per residue with Δδnorm > 0.08 ppm (residue named left of the cell), Int. Ex. = intermediate exchange
[13] = NMR, average of all analysable residues with CSPs > 0.08 ppm, ± standard deviation
[14] = NMR, Bet v 1d, average of all analysable residues with CSPs > 0.08 ppm, ± standard deviation
[15] = NMR, average of all analysable residues with CSPs > 0.08 ppm, ± standard deviation, read-out: Dissociation constant Kd (averaged Kd app)

| Compound | Kd (Bet v 1a [1]; Bet v 1a) [µM] | Absorption maxima, Bet v 1a:Flavonoid (Bet v 1a [1]) [nm] | Kd (Bet v 1m [2]) [µM] | Absorption maxima, Bet v 1m:Flavonoid (Bet v 1m [2]) [nm] | Kd (Bet v 1d [3]) [µM] | Absorption maxima, Bet v 1d:Flavonoid (Bet v 1d [3]) [nm] | Kd per residue (Bet v 1a [4]; [10]) | Kd (Bet v 1a [4]; [11]) | Kd (Bet v 1a [4]; [12]) | Kd (Bet v 1m [5]; [11]) [µM] | Kd (Bet v 1m [5]; [12]) | Kd per residue (Bet v 1m [5]; [10]) | Absorption maxima, Flavonoid [6] [nm] | binding to Bet v 1a (in words) (Bet v 1a [4]) | binding to Bet v 1d (in words) (Bet v 1d [7]) | Dissociation constant Kd (averaged Kd app) (Bet v 1d [7]; [14]) | binding to Bet v 1m (in words) (Bet v 1m [8]) | influence of ligand on IgE binding of Bet v 1 isoforms [9] | further results |
| --- | --- | --- | --- | --- | --- | --- | --- | --- | --- | --- | --- | --- | --- | --- | --- | --- | --- | --- | --- |
| O=c1c(O)c(-c2ccc(O)c(O)c2)oc2cc(O)ccc12 [Fisetin, fisetin] | 14.3 ± 1.1 | 372 | 68.6 ± 12.4 | 370 | 13.9 ± 2.1 | 371 | Int. Ex. | 37.2 ± 6.5 µM | 18.2 µM and 39.4 µM and 72.5 µM and 16.1 µM and 53.5 µM and 48 µM and 36.8 µM and 18.6 µM and 28.6 µM and 17.4 µM and 16.8 µM | 85.1 ± 21.7 | 150 µM and 28.9 µM and 109 µM and 111 µM and 81.3 µM and 20.4 µM | Int. Ex. | 368 |  |  |  |  |  |  |
| O=c1cc(-c2ccccc2)oc2ccccc12 [Flavone, flavone] |  |  |  |  |  |  |  | 67.1 ± 12.1 µM |  | 213 ± 36.6 |  |  | 302 |  |  |  |  |  | Kd (Bet v 1d [7]; Dissociation constant Kd (averaged Kd app), NMR, Bet v 1d, average of all analysable residues with CSPs > 0.08 ppm, ± standard deviation): 69.9 ± 14.8 µM |
| O=C[C@H](O)[C@@H](O)[C@@H](O)[C@H](O)CO [Galactose, galactose] |  |  |  |  |  |  |  |  |  |  |  |  |  | no detectable affinity | no detectable affinity | No binding | no detectable affinity |  | Dissociation constant Kd (averaged Kd app) (Bet v 1a [4]; [13]): No binding; Dissociation constant Kd (averaged Kd app) (Bet v 1m [5]; [13]): No binding |
| OC[C@H]1OC(O)[C@H](O)[C@@H](O)[C@@H]1O (stereo partly shown) [Glucose, glucose] |  |  |  |  |  |  |  |  |  |  |  |  |  | no detectable affinity | no detectable affinity | No binding | no detectable affinity |  | Dissociation constant Kd (averaged Kd app) (Bet v 1a [4]; [13]): No binding; Dissociation constant Kd (averaged Kd app) (Bet v 1m [5]; [13]): No binding |
| O=c1c(O)c(-c2cc(O)c(O)c(O)c2)oc2cc(O)cc(O)c12 [Myricetin, myricetin] | 4.2 ± 0.7 | 387 |  |  | 1.2 ± 0.2 | 382 | Int. Ex. | 14.6 ± 6.5 µM | 5 µM and 11.6 µM and 26.9 µM | 99.3 ± 19.4 | 75.3 µM and 161 µM and 24.4 µM and 88.5 µM and 126 µM and 120 µM | Int. Ex. | 378 |  |  |  |  |  | fold higher affinity than flavone (Bet v 1a [1]; Bet v 1a): 15 fold; fold higher affinity than flavone (Bet v 1d [3]; Bet v 1d): 60 fold |
| O=C1C[C@@H](c2ccc(O)cc2)Oc2cc(O)cc(O)c21 [Naringenin, naringenin] | 60.6 ± 3.2 | 325 | 28.1 ± 0.8 | 322 | 37.7 ± 6.4 | 325 | Int. Ex. | ~30 µM and 30 µM |  | 22.1 ± 5.5 | 8.2 µM and 13.6 µM and 19 µM and 39.6 µM and 27.1 µM | Int. Ex. | 325 |  |  |  |  |  |  |
| O=c1c(O[C@@H]2O[C@H](CO)[C@H](O)[C@H](O)[C@H]2O)c(-c2ccc(O)c(O)c2)oc2cc(O)cc(O)c12 [Q3OGal, quercetin-3-O-galactoside] |  |  |  |  |  |  | Int. Ex. |  |  |  |  | Int. Ex. | 358 | high affinity; also recorded: strong | Weak affinity; also recorded: did not produce significant CSPs | No binding | High affinity | did not modify IgE-binding | Kd (Bet v 1a [4]; [15]): < 5 µM; Kd (Bet v 1m [5]; [15]): < 5 µM |
| O=c1c(O)c(-c2ccc(O)c(O)c2)oc2cc(O)cc(O)c12 [Quercetin, quercetin] | 9.2 ± 0.6 | 382 | 26.5 ± 1.5 | 381 | 10.2 ± 1 | 382 | Int. Ex. | 31.4 ± 10.3 µM | 69.1 µM and 36.8 µM and 11.1 µM and 21.6 µM and 18.6 µM | 65.8 ± 8.2 |  | Int. Ex | 377 |  |  |  |  | did not modify IgE-binding |  |
| C[C@@H]1O[C@@H](OC[C@H]2O[C@@H](Oc3c(-c4ccc(O)c(O)c4)oc4cc(O)cc(O)c4c3=O)[C@H](O)[C@@H](O)[C@@H]2O)[C@H](O)[C@H](O)[C@H]1O [rutin] |  |  |  |  |  |  |  |  |  |  |  |  |  |  |  |  |  | did not modify IgE-binding |  |
| OC[C@H]1O[C@@H](O[C@H]2C(O)O[C@H](CO)[C@@H](O)[C@@H]2O)[C@H](O)[C@@H](O)[C@@H]1O (stereo partly shown) [sophorose] |  |  |  |  |  |  |  |  |  |  |  |  |  |  |  |  |  | did not modify IgE-binding |  |
